We go through 20 compounds from patent US12649727B2, “EFGR inhibitor, preparation method therefor and application thereof” (Abbisko Therapeutics Co., Ltd, priority 2020, dated 2026).

Holding throughout (assay type): cell-based
The target in experiment [1] is Ba/F3 EGFR-D770-N771ins_SVD (Homo sapiens, UniProt P00533, DUP768-770, cells depend on it). In words: Proliferation experiment of Ba/F3 cell line, EGFR-D770-N771ins_SVD (CellTiter-Glo). Conditions: cultured for 72 hrs with compound, CTG analysis, read-out: Ba/F3 EGFR-D770-N771ins_SVD IC50. On the procedure: (§1) Proliferation Experiment of Ba/F3 Cell Line
(§2) (I) Reagents and Materials
(§3) • Fetal bovine serum FBS (GBICO, Cat #10099-141); • CellTiter-Glo® luminescent cell viability assay kit (Promega, Cat #G7572); • Black transparent flat-bottom 96 well plate (Corning®, Cat #3603). (II) Instruments • SpectraMax multi-label microplate reader MD, 2104-0010A; • Carbon dioxide incubator, Thermo Scientific 3100 series; • Biological safety cabinet, Thermo Scientific, 1300 series model A2; • Inverted microscope, Olympus, CKX41SF; • Siemens refrigerator KK25E76TI. (III) Cell Lines and Culture Conditions
(§4) (IV) Experimental Procedures 1. Cell Culture and Inoculation: • (1) Cells in the logarithmic growth phase were harvested and counted using a […]. Cell viability was detected by Trypan Blue Dye Exclusion Method to ensure cell viability above 90%. • (2) The cell concentration was adjusted to reach a desired final density; 90 μL of cell suspension was added to the 96-well plate. • (3) The cells were incubated overnight in the 96-well plate at 37° C., 5% CO2 and at 95% humidity.
(§5) 2. T0 Reference Data: • (1) 10 μL PBS was added to each well of the TO plate containing the cells. • (2) The CTG reagent was thawed and the cell plate was equilibrated to room temperature for 30 min. • (3) An equal volume of CTG solution was added to each well. • (4) The cells were lysed by shaking on an orbital shaker for 5 min. • (5) The cell plate was left at room temperature for 20 min to stabilize the luminescence signal. • (6) The fluorescence signal values of TO were read. 3. Dilution and Addition of Compounds • (1) According to the compound information table, a corresponding volume of DMSO was added to the corresponding compound powder to prepare a 10 mM stock solution. • (2) A 1000-fold, 3.16-fold-diluted compound solution was prepared. • (3) The 1000× diluted compound solution was diluted 100-fold with PBS to prepare a 10-fold compound solution with a maximum concentration of […], including 9 concentrations, with 3.16-fold dilution, and 10 μL of the medicament solution was added to each well of the 96-well plate to seed the cells. Triplicate wells were set for each compound concentration, with a final concentration of DMSO being 0.1%. • (4) The cells were placed in the 96-well plate filled with the medicament at 37° C., 5% CO2 and at 95% humidity, and cultured for 72 hrs before CTG analysis. 4. Fluorescence Signal Reading • (1) The CTG reagent was thawed and the cell plate was equilibrated to room temperature for 30 min. • (2) An equal volume of CTG solution was added to each well. • (3) The cells were lysed by shaking on an orbital shaker for 5 min. • (4) The cell plate was left at room temperature for 20 min to stabilize the fluorescence signal. • (5) The fluorescence values were read. 5. Data Processing
(§6) Data were analyzed using GraphPad Prism 7.0 software and fitted data were regressed using non-linear S-curves to obtain dose-response curves from which IC50 values (in nM) were calculated.

The test system of experiment [2] is A431 (EGFR-WT). In words: Proliferation experiment, A431 cell line (CellTiter-Glo). Conditions: Homo sapiens, A-431; A431 cells, cultured for 72 hrs with compound, CTG analysis. The method, then: [The procedure below names another cell line; the source lists this cell line under the same test.] as §1, §2, §3, §4, §5, §6
The target of experiment [3] is Ba/F3 EGFR-V769_D770insASV (Homo sapiens, UniProt P00533, DUP767-769, cells depend on it). In words: Proliferation experiment of Ba/F3 cell line, EGFR-V769_D770insASV (CellTiter-Glo). Conditions: cultured for 72 hrs with compound, CTG analysis, read-out: Ba/F3 EGFR-V769_D770insASV IC50. The method, then:
as §1, §2, §3, §4, §5, §6

Chain of Ba/F3 EGFR-V769_D770insASV (P00533 with tags, fused parts or gaps DUP767-769): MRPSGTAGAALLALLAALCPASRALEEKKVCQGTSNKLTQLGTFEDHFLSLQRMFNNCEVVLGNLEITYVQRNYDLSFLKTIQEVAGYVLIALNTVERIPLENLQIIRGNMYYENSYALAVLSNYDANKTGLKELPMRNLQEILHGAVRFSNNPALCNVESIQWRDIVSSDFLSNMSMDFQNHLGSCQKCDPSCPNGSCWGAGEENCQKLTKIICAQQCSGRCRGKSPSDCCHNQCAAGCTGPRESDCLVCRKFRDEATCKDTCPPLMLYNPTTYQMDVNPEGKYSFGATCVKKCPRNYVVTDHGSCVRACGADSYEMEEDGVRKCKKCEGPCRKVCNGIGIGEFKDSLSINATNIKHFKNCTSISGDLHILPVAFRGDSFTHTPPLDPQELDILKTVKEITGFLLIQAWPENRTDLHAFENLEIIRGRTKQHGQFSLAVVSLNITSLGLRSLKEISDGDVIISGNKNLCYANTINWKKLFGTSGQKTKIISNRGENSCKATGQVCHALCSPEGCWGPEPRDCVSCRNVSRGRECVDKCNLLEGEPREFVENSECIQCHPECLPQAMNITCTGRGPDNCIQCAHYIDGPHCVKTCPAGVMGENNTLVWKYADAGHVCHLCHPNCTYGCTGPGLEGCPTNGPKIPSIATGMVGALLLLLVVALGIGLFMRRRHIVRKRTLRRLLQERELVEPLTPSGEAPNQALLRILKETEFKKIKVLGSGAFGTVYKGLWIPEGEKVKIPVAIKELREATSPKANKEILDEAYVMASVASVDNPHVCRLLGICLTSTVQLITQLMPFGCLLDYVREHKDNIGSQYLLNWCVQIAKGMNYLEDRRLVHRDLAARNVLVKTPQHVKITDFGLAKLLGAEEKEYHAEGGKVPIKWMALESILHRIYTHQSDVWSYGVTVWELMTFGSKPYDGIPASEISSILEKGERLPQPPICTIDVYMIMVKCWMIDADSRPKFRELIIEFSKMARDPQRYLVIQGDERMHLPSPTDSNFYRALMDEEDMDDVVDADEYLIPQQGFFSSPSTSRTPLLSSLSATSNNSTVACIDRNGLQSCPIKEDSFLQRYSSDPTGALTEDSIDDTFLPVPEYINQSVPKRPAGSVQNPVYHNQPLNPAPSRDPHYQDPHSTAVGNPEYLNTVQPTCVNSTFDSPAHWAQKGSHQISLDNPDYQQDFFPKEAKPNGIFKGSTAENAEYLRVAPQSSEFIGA
Chain of Ba/F3 EGFR-D770-N771ins_SVD (P00533 with tags, fused parts or gaps DUP768-770): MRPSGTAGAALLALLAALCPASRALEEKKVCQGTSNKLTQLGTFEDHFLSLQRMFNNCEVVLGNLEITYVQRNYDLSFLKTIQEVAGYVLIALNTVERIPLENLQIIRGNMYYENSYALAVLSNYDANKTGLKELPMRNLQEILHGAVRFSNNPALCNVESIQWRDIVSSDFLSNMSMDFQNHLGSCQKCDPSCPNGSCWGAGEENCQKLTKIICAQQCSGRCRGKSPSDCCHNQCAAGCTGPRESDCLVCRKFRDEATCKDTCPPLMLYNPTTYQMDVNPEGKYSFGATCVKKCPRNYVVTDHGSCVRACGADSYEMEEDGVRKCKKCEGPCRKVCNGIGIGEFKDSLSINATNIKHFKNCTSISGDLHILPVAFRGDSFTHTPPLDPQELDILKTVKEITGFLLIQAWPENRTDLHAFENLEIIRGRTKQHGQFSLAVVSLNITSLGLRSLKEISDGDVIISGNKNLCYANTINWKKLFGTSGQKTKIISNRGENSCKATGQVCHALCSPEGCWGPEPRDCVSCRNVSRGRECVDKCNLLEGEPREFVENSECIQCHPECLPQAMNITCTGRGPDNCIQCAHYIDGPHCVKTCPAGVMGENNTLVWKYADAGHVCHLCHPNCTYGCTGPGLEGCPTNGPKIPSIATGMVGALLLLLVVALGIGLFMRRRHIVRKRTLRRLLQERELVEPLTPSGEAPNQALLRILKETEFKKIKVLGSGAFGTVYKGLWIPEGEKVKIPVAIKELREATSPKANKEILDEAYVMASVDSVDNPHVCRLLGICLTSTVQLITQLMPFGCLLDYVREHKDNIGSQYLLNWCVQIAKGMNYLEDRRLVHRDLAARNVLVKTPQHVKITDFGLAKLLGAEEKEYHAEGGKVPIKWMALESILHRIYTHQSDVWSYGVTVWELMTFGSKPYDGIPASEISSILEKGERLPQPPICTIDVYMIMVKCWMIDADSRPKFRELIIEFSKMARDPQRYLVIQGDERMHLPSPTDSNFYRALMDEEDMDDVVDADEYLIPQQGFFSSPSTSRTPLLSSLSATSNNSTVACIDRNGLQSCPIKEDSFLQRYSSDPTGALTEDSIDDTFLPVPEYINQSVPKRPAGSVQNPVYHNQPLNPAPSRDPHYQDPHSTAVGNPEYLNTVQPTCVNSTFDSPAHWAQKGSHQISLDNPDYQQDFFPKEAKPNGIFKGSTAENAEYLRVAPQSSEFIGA

As for `C=CC(=O)Nc1cc2c(Nc3ccnc(-c4ccccc4F)c3)ncnc2cc1O[C@@H]1CCN(C2CC2)C1` [Example 113, (R)—N-(7-((1-cyclopropylpyrrolidin-3-yl)oxy)-4-((2-(2-fluorophenyl)pyridin-4-yl)amino)quinazolin-6-yl)acrylamide], the GI50 came to 3.9 nM in experiment [1] and 11.6 nM in experiment [3]. Besides, the IC50 in experiment [2] came to 173 nM.
`C=CC(=O)Nc1cc2c(Nc3cccc(-n4nccn4)c3)ncnc2cc1OCCN1CCOCC1` [Example 54, N-(4-((3-(2H-1,2,3-triazol-2-yl)phenyl)amino)-7-(2-morpholinoethoxy)quinazolin-6-yl)acrylamide]: the GI50 is 67.9 nM in experiment [1] and 107 nM in experiment [3].
Take `C=CC(=O)Nc1cc2c(Nc3ccc(F)c(-c4ccccc4F)c3)ncnc2cc1OCCCN1CCN(C)CC1` [Example 39, N-(4-((2′,6-difluoro-[1,1′-biphenyl]-3-yl)amino)-7-(3-(4-methylpiperazin-1-yl)propoxy)quinazolin-6-yl)acrylamide]: the figures for the GI50 in experiment [1] and in experiment [3] were 18 nM and 25.6 nM, respectively. In addition, in experiment [2], the IC50 worked out at 271 nM.
On to `C=C(F)C(=O)Nc1cc2c(Nc3ccnc(-c4ccccc4F)c3)ncnc2cc1N1CCC(O)CC1` [Example 100, 2-fluoro-N-(4-((2-(2-fluorophenyl)pyridin-4-yl)amino)-7-(4-hydroxypiperidin-1-yl)quinazolin-6-yl)acrylamide], for which the values for the GI50 in experiment [1] and in experiment [3] were 4.4 nM and 14.8 nM, respectively. Moreover, the IC50 in experiment [2] came to 225 nM.
As for `C=CC(=O)Nc1cc2c(Nc3cncc(-c4ccccc4F)c3)ncnc2cc1OCCCN1CCOCC1` [Example 58, N-(4-((5-(2-fluorophenyl)pyridin-3-yl)amino)-7-(3-morpholinopropoxy)quinazolin-6-yl)acrylamide], the figures for the GI50 in experiment [1] and in experiment [3] were 5.1 nM and 13.6 nM, respectively. The IC50 in experiment [2] stood at 840 nM.
For `C=CC(=O)Nc1cc2c(Nc3cncc(-c4ccccc4F)c3)ncnc2cc1OCCN1CCOCC1` [Example 57, N-(4-((5-(2-fluorophenyl)pyridin-3-yl)amino)-7-(2-morpholinoethoxy)quinazolin-6-yl)acrylamide], the GI50 in experiment [1] is 10.8 nM; in experiment [3] it was 28.7 nM. In addition, the IC50 in experiment [2] was 1070 nM.
Regarding `C=CC(=O)Nc1cc2c(Nc3ccnc(-c4ccccc4F)c3)ncnc2cc1OCCCN1CCN(CCO)CC1` [Example 122, N-(4-((2-(2-fluorophenyl)pyridin-4-yl)amino)-7-(3-(4-(2-hydroxyethyl)piperazin-1-yl)propoxy)quinazolin-6-yl)acrylamide], the GI50 in experiment [1] came out at 3.8 nM; in experiment [3], 6.8 nM. For the same compound, the IC50 in experiment [2] stood at 63.9 nM.
In the case of `C=CC(=O)Nc1cc2c(Nc3cccc(-c4ccc(F)cc4F)c3)ncnc2cc1OCCCN1CCC(F)(F)CC1` [Example 14, N-(4-((2′,4′-difluoro-[1,1′-biphenyl]-3-yl)amino)-7-(3-(4,4-difluoropiperidin-1-yl)propoxy)quinazolin-6-yl)acrylamide], the GI50 in experiment [1] is 34.4 nM; in experiment [3] it was 221 nM. Besides, in experiment [2], the IC50 came out at 365 nM.
Turning to `C=CC(=O)Nc1cc2c(Nc3cccc(-n4cccn4)c3)ncnc2cc1OCCCN1CCOCC1` [Example 52, N-(4-((3-(1H-pyrazol-1-yl)phenyl)amino)-7-(3-morpholinopropoxy)quinazolin-6-yl)acrylamide], the GI50 in experiment [1] is 10.4 nM; in experiment [3] it was 17.9 nM.
As for `C=CC(=O)Nc1cc2c(Nc3cccc(-c4c(F)cccc4F)c3)ncnc2cc1OCCCN1CCN(C)C(=O)C1` [Example 32, N-(4-((2′,6′-difluoro-[1,1′-biphenyl]-3-yl)amino)-7-(3-(4-methyl-3-oxopiperazin-1-yl)propoxy)quinazolin-6-yl)acrylamide], the GI50 in experiment [1] came to 35.9 nM; in experiment [3], 86.3 nM. Moreover, in experiment [2], the IC50 stood at 205 nM.
On to `C=CC(=O)Nc1cc2c(Nc3ccc(F)c(-c4c(F)cccc4F)c3)ncnc2cc1OCCCN1CCN(C)CC1` [Example 40, N-(7-(3-(4-methylpiperazin-1-yl)propoxy)-4-((2′,6,6′-trifluoro-[1,1′-biphenyl]-3-yl)amino)quinazolin-6-yl)acrylamide], for which the GI50 stood at 15 nM in experiment [1] and 25.4 nM in experiment [3]. In addition, the IC50 in experiment [2] amounted to 372 nM.
Take `C=CC(=O)Nc1cc2c(Nc3cccc(-c4c(F)cccc4F)c3)ncnc2cc1OCCCN1CC(N(C)C)C1` [Example 36, N-(4-((2′,6′-difluoro-[1,1′-biphenyl]-3-yl)amino)-7-(3-(3-(dimethylamino)azetidin-1-yl)propoxy)quinazolin-6-yl)acrylamide]: the values for the GI50 in experiment [1] and in experiment [3] were 32.3 nM and 68.6 nM, respectively. For the same compound, the IC50 in experiment [2] worked out at 235 nM.
In the same order, the values of `C=CC(=O)Nc1cc2c(Nc3ccnc(-c4ccc(F)cc4F)c3)ncnc2cc1OCCN1CCOCC1` [Example 77, N-(4-((2-(2,4-difluorophenyl)pyridin-4-yl)amino)-7-(2-morpholinoethoxy)quinazolin-6-yl)acrylamide] are 1.6 nM, 4.4 nM and 317 nM.
In the same order, the values of `C=CC(=O)Nc1cc2c(Nc3cc(-c4ccc(F)cc4F)ccc3F)ncnc2cc1OCCCN1CCOCC1` [Example 11, N-(7-(3-morpholinopropoxy)-4-((2′,4,4′-trifluoro-[1,1′-biphenyl]-3-yl)amino)quinazolin-6-yl)acrylamide] are 29.3 nM, 119 nM and 479 nM.
On to `C=CC(=O)Nc1cc2c(Nc3cccc(-c4ccccc4F)c3)ncnc2cc1OCCCN1CCOCC1` [Example 45, N-(4-((2′-fluoro-[1,1′-biphenyl]-3-yl)amino)-7-(3-morpholinopropoxy)quinazolin-6-yl)acrylamide], for which the GI50 in experiment [1] amounted to 17 nM; in experiment [3], 27 nM. In addition, in experiment [2], the IC50 was 66 nM.
As to `C=CC(=O)Nc1cc2c(Nc3cccc(-c4c(F)cccc4F)c3)ncnc2cc1O[C@@H]1CCN(C)C1` [Example 37, (R)-N-(4-((2′,6′-difluoro-[1,1′-biphenyl]-3-yl)amino)-7-((1-methylpyrrolidin-3-yl)oxy)quinazolin-6-yl)acrylamide], the GI50 in experiment [1] worked out at 31.6 nM; in experiment [3], 47.5 nM. Moreover, the IC50 in experiment [2] was 302 nM.
As to `C=CC(=O)Nc1cc2c(Nc3cccc(-c4ccc(F)cc4F)c3)ncnc2cc1OCCN1CCN(C)CC1` [Example 4, N-(4-((2′,4′-difluoro-[1,1′-biphenyl]-3-yl)amino)-7-(2-(4-methylpiperazin-1-yl)ethoxy)quinazolin-6-yl)acrylamide], the values for the GI50 in experiment [1] and in experiment [3] were 52.5 nM and 175 nM, respectively.
On to `C=CC(=O)Nc1cc2c(Nc3cccc(-n4cccn4)c3)ncnc2cc1OCCN1CCOCC1` [Example 51, N-(4-((3-(1H-pyrazol-1-yl)phenyl)amino)-7-(2-morpholinoethoxy)quinazolin-6-yl)acrylamide], for which the GI50 in experiment [1] was 40.6 nM; in experiment [3] it was 89.9 nM.
For the compound `C=CC(=O)Nc1cc2c(Nc3cccc(-n4nccn4)c3)ncnc2cc1OCCCN1CCOCC1` [Example 55, N-(4-((3-(2H-1,2,3-triazol-2-yl)phenyl)amino)-7-(3-morpholinopropoxy)quinazolin-6-yl)acrylamide], the values for the GI50 in experiment [1] and in experiment [3] were 15 nM and 34.6 nM, respectively.
For the compound `C=CC(=O)Nc1cc2c(Nc3cccc(-c4c(F)cc(F)cc4F)c3)ncnc2cc1OCCN1CCOCC1` [Example 24, N-(7-(2-morpholinoethoxy)-4-((2′,4′,6′-trifluoro-[1,1′-biphenyl]-3-yl)amino)quinazolin-6-yl)acrylamide], in experiment [1], the GI50 was 46.2 nM. Further, the IC50 in experiment [2] was found to be 378 nM.
